≈ marks a conversion by molar mass, not a printed value.
Legend:
[1] = test system: human non-small cell lung cancer HCC827; conditions: lung cancer HCC827 transplantation tumors in nude mice, background statement; cited from earlier work
[2] = test system: K562 (BCR-Abl gene rearrangement) subcutaneous tumor model; conditions: human leukemia K562 transplantation tumors in nude mice, background statement; cited from earlier work
[3] = Solubility test (UV spectrophotometer, saturated solutions shaken 24 hours); type: physicochemical; conditions: for Solubility, Water medium pH = 1.2 / Solubility, Water medium pH = 4.5 / Solubility, Water medium pH = 6.8 / Solubility, Water medium: 25° C.; for Solubility, Water medium pH = 1.2: pH=1.2 hydrochloric acid solution; for Solubility, Water medium pH = 4.5: pH=4.5 phosphate buffer solution; for Solubility, Water medium pH = 6.8: pH=6.8 phosphate buffer solution; for Solubility, Water medium: water (purified water)
Protocol: Detection instrument: Ultraviolet spectrophotometer/Evolution 300
The following solutions with pH=1.2, pH=4.5, and pH=6.8 and water were used as the solvent, and the solvent preparation process was as follows:
(1) pH=1.2 hydrochloric acid solution: To 7.65 mL of hydrochloric acid was added 1000 mL of water, and the mixture was shaken uniformly to obtain the target solution.
(2) pH=4.5 phosphate buffer solution: 6.8 g of potassium dihydrogen phosphate was taken and diluted with water to 1000 mL, and the mixture was shaken uniformly to obtain the target solution.
(2) pH=6.8 phosphate buffer solution: 6.8 g of potassium dihydrogen phosphate and 0.896 g of sodium hydroxide were taken and diluted with water to 1000 mL, and the mixture was shaken uniformly to obtain the target solution.
(4) Water: purified water
Test tubes with stopper were taken, and 10 mL of dissolution media at various pH values were precisely added to the test tubes respectively, and excessive stock drugs were added until supersaturated solutions were formed. The adding amounts were recorded. The solutions were shaken uniformly, sealed with stoppers, and shaken for 24 hours in a shaker. 2 mL of solutions were taken out at different time points respectively, and centrifuged. The resulting supernatants were taken, filtered, and the subsequent filtrates were taken for later use.
The above-mentioned saturated solutions in different solvents were taken, and solvents were added to dilute the solutions to certain volumes. The absorbances were measured at a wavelength of 287 nm.
Preparation of a solution of the reference substance: an appropriate amount of the compound represented by Formula 1 was taken as the reference substance, and precisely weighed. A solvent was added to dissolve and dilute the reference compound to produce a solution containing about 10 μg of the compound represented by Formula 1 per 1 mL. The absorbance was measured at a wavelength of 287 nm to calculate the solubility.
The salts obtained in Examples 1 and 3-17 and the compound represented by Formula 1 were subjected to the solubility test in media and the test results were shown in the following table: […]

DSC and TGA tests = type: physicochemical; conditions: onset temperature
Protocol: 6. Differential Scanning Calorimetry-Thermogravimetric Analysis (DSC-TGA)
Detection instrument: NETZSCH STA 449F3
Temperature range: 20° C.-350° C.;
Heating rate: 10.0 (K/min);
7. Differential Scanning Calorimetry (DSC)
Detection instrument: NETZSCH DSC 214 Polyma
Temperature range: 20° C.-250° C.;
Heating rate: 5.0 (K/min);
8. Thermogravimetric Analysis (TGA)
Detection instrument: METTLER and SDT Q600
The salts obtained in Examples 1 and 3-17 and the compound represented by Formula 1 were subjected to the DSC and TGA tests in media, and the test results were shown in the following table: […]

leukemia = conditions: background statement; cited from earlier work
lung cancer = conditions: background statement; cited from earlier work
[4] = test system: lung cancer (PC-9) transplantation tumors; conditions: lung cancer PC-9 transplantation tumors in nude mice, background statement; cited from earlier work
[5] = test system: MV4-11 (FLT3-ITD mutation) subcutaneous tumor model; conditions: human leukemia MV4-11 transplantation tumors in nude mice, background statement; cited from earlier work
Hygroscopicity test = type: physicochemical; conditions: 25±1° C., relative humidity 80%±2% (DVS, 80% RH)
Protocol: Detection instrument: XPE105DR
(1) A dry stoppered glass weighing bottle was taken, placed in a suitable constant-temperature desiccator at 25° C. 1° C. (with a saturated solution of ammonium chloride or ammonium sulfate in the lower part) or an artificial climate box (with the set temperature of 25° C.±1° C. and the relative humidity of 80%±2%) on the day before the test, and precisely weighed and recorded as the weight (m1).
(2) An appropriate amount of the test sample was taken and spread in the above-mentioned weighing bottle. The thickness of the test sample was generally about 1 mm, and the bottle was precisely weighed and recorded as the weight (m2).
(3) The stopper was removed to open the weighing bottle, and the opened weighing bottle and the stopper were placed under the above-mentioned constant temperature and humidity conditions for 24 hours.
(4) The opened weighing bottle was stoppered, precisely weighed, and recorded as the weight (m3).
Percentage increase in mass=(m3−m2)/(m2−m1)×100%
(5) The description of hygroscopicity characteristics and the definition for the weight gain due to hygroscopicity:
Deliquescence: Sufficient water was absorbed to form a liquid.
Very hygroscopic: the weight gain due to hygroscopicity was not less than 15%.
Hygroscopic: the weight gain due to hygroscopicity was less than 15% but not less than 2%.
Slightly hygroscopic: the weight gain due to hygroscopicity was less than 2% but not less than 0.2%.
Not or nearly not hygroscopic: the weight gain due to hygroscopicity was less than 0.2%.
Appropriate amounts of the salt samples obtained from Examples 1 and 3-17 were subjected to the hygroscopicity test at a temperature of 25±1° C. under a relative humidity of 80%±2%, and the results were as follows: […]

[6] = Accelerated stability test; type: physicochemical
Protocol: Appropriate amounts of the salt samples obtained from Examples 1 and 3-17 were placed at a temperature of 25±2° C. under 0%±5% RH in an open environment for 10 days and at a temperature of 40±2° C. under 75%±5% RH in an open environment for 10 days respectively to perform the accelerated tests, and the results were as follows: […]

[7] = Placed at 25 ± 2° C. under 0% ± 5% RH in an open environment for 10 days
[8] = Placed at 40 ± 2° C. under 75% ± 5% RH in an open environment for 10 days

Row | Solubility, Water medium pH = 1.2 [3] | Solubility, Water medium pH = 4.5 [3] | Solubility, Water medium pH = 6.8 [3] | Solubility, Water medium [3] | solubility in water (in words) ([3]; water) | TGA: starting to decompose (DSC and TGA tests) | Weight gain due to hygroscopicity (Hygroscopicity test) | Appearance [6, 7] | Appearance [6, 8] | TGA: starting to lose the acid (DSC and TGA tests) | TGA: starting to lose the water of crystallization (DSC and TGA tests) | Structure (SMILES) | efficacy on transplantation tumors [1] | efficacy on transplantation tumors [2] | anti-leukemia activity compared with Sunitinib (leukemia) | anti-lung cancer activity compared with Gefitinib (lung cancer) | efficacy on transplantation tumors [4] | efficacy on transplantation tumors [5] | Hygroscopicity (Hygroscopicity test)
1 | 12.60 mg/mL | 0.57 mg/mL | 0.04 mg/mL | 0.05 mg/mL | insoluble in water | ~155 °C (see FIG. 42) | 0.45% |  |  |  |  | CC(C)n1c(Nc2cccnc2)nc2cnc(Nc3ccc(N4CCN(C)CC4)cc3)nc21 [The compound represented by Formula 1, 9-isopropyl-2-(4-(4-methylpiperazin-1-yl)anilino)-8-(pyridine-3-amino)-9H-purine] | remarkable efficacy | remarkable efficacy | better than that of Sunitinib | comparable to that of Gefitinib | remarkable efficacy | remarkable efficacy | Slightly hygroscopic (the weight gain due to hygroscopicity was less than 2% but not less than 0.2%.)
2 | >1000 mg/mL | >1000 mg/mL | >1000 mg/mL | >1000 mg/mL |  |  | 19.62% | Liquid | Liquid | ~190 °C (see FIG. 25) | crystallization at about 40° C.; | CC(C)n1c(Nc2cccnc2)nc2cnc(Nc3ccc(N4CCN(C)CC4)cc3)nc21 [Example 5] |  |  |  |  |  |  | Very hygroscopic (the weight gain due to hygroscopicity was not less than 15%.)
3 | 41.47 mg/mL | 0.72 mg/mL | 0.03 mg/mL | 0.04 mg/mL (≈ 0.0902 mM) |  |  | 1.59% | Off-white solid | Off-white solid | ~80 °C (see FIG. 37) | crystallization at about 40° C.; | CC(C)n1c(Nc2cccnc2)nc2cnc(Nc3ccc(N4CCN(C)CC4)cc3)nc21 [Example 14] |  |  |  |  |  |  | Slightly hygroscopic (the weight gain due to hygroscopicity was less than 2% but not less than 0.2%.)
4 | >1000 mg/mL | >1000 mg/mL | >1000 mg/mL | >1000 mg/mL |  |  | 6.94% | Liquid | Liquid | ~220 °C (see FIG. 23) | crystallization at about 40° C.; | CC(C)n1c(Nc2cccnc2)nc2cnc(Nc3ccc(N4CCN(C)CC4)cc3)nc21 [Example 4] |  |  |  |  |  |  | Hygroscopic (the weight gain due to hygroscopicity was less than 15% but not less than 2%.)

Reference: patent US20230144619A1, “SALT OF ARYLAMINOPURINE DERIVATIVE, PREPARATION METHOD THEREFOR AND USE THEREOF” (CSPC Zhongqi Pharmaceutical Technology (Shijiazhuang) Co., …, priority 2020, published 2023)
